{"source": "patent US20120178738A1", "about": "“DIBENZO [B,F] [1,4]OXAZAPINE COMPOUNDS” (ARYX THERAPEUTICS, INC., priority 2007, published 2012)", "key": {"[1]": {"tested_on": "locomotor activity in rats", "assay": "Spontaneous locomotor activity (open field)", "type": "in vivo", "procedure": "One of the common side effects of many antipsychotic drugs is sedation. It has been shown that agents that have sedative actions in man have the same effect in animals. The purpose of these studies was to evaluate the effect of test compounds on the locomotor activity in rats, which is used to assess the sedative properties of antipsychotic compounds.\nThe animals (male Sprague Dawley rats, about 300-450 g; Charles River) were assessed for ambulation for 30 minutes before and for 30 min after vehicle or test compounds. […] Locomotor activity is quantified by the number of photobeams crossed by the animal over several 3×10 min intervals."}, "human D2S receptor": {"target": "T1, human D2S receptor (Homo sapiens, UniProt P14416)", "T1 construct": "host or cells: HEK 293 cells", "T1 sequence (P14416 1-414 isoform P14416-2)": "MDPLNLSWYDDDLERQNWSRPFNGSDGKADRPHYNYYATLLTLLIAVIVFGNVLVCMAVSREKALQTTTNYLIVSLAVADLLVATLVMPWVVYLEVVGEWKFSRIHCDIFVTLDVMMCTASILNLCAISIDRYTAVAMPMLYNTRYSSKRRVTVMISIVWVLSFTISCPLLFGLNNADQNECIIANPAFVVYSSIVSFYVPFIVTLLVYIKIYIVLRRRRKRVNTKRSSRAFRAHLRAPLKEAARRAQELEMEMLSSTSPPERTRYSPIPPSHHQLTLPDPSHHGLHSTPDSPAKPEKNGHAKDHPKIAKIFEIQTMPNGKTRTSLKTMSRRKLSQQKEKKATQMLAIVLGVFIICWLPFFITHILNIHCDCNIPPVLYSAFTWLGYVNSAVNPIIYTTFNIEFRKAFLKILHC", "assay": "Adenylyl cyclase (HitHunter cAMP XS) assay in HEK 293 cells expressing human D2S", "type": "cell-based"}, "catalepsy in mice": {"tested_on": "catalepsy in mice", "assay": "Catalepsy mouse model", "type": "in vivo", "settings": "up to 30 mg/kg, IP", "procedure": "A catalepsy mouse model was used to investigate a potential side effect of antipsychotic agents.\nThe catalepsy methodology used herein has been adapted from Tada, M. et al. ((2004). Psychopharmacol., 176, 94-100) as well as Wang et al. ((2000). J. Neurosci., 20, 8305-8314).\nThe animals (Swiss Webster, female, about 20 g; Charles River) were administered compounds of the invention (1 μg/kg-30 mg/kg ip). Twenty seven minutes after test compound injection, the mice's forepaws were placed on a horizontal steel bar (diameter 0.2 cm), elevated 3-5 cm above the tabletop and the time taken for the animals to remove both paws was recorded for up to 2 min."}}, "note": "pIC50: −log10 of the molar value."}
{"smiles": "O=C(O)C[C@H]1CN(C2=Nc3cc(Cl)ccc3Oc3ccccc32)CCN1", "note": "[Compound Q, (S,E)-2-(4-(8-chlorodibenzo[b,f][1,4]oxazepin-11-yl)piperazin-2-yl)acetic acid]", "values": [{"measurement": "locomotor activity in rat (open field)", "setting": "[1]; 10 mg/kg", "result": "did not reduce"}]}
{"smiles": "CCOC(=O)C[C@H]1CN(C2=Nc3cc(Cl)ccc3Oc3ccccc32)CCN1", "note": "[Compound K, (S,E)-ethyl 2-(4-(8-chlorodibenzo[b,f][1,4]oxazepin-11-yl)piperazin-2-yl)acetate]", "values": [{"measurement": "functional activity at human D2S receptor", "setting": "human D2S receptor; HEK 293 cells, 27 μM forskolin (agonist) or plus 30 nM dopamine (antagonist)", "result": "partial D2 receptor agonist and a D2 receptor antagonist"}, {"measurement": "pIC50", "setting": "human D2S receptor; adenylyl cyclase assay, human D2S receptor, read-out: estimated IC50", "result": 4.89}, {"measurement": "catalepsy", "setting": "catalepsy in mice", "result": "did not cause catalepsy"}, {"measurement": "locomotor activity in rat (open field)", "setting": "[1]; 0.03-10 mg/kg", "result": "did not reduce"}]}
